The record followed here is patent US20240228481A1, “NOVEL SULFONAMIDE SERIES OF QR2 INHIBITORS TO TACKLE OXIDATIVE STRESS AND COGNITIVE DECLINE” (CARMEL HAIFA UNIVERSITY ECONOMIC CORPORATION LTD., priority 2021, published 2024).

Data set [1] relates to HEK293T cells. Description: XTT cell viability assay. The data set is classed as cell-based. The conditions noted are these: 3 h incubation, 20 nM-20 μM. How it is done:
HEK293FT cells were cultured with penicillin-streptomycin antibiotics in Invitrogen DMEM (Thermo Fisher Scientific) with 10% fetal bovine serum and L-glutamine and grown to 80-90% confluence in 100 mm plates, while being passaged every 2-3 days. For the XTT assay (Biological Industries), cells were then collected, centrifuged, and resuspended in fresh minimum essential medium, and seeded at 50,000 cells/well in 96-well, poly-L-lysine-coated Nunc black, clear flat-bottomed plates (Thermo Fisher Scientific). The next day, the cells were treated with increasing doses of QR2 inhibitors or vehicle for 3 h, and the XTT assay was then carried out as according to the manufacturer's instructions.
Background: Tetrazolium dyes change colour on reduction, which living cells bring about.

Data set [2] relates to THLE-2 cells. The data set is described as follows: Cell toxicity assay (ATP depletion, CellTiter Glo). The conditions noted are these: 72 h incubation, CellTiter Glo. Background: Cellular ATP, detected with luciferase, serves as a proxy for viable cell number.
Description: THLE-2 (CRL-2706™) were grown in the BEGM Bullet Kit (CC-3170) from Lonza. Besides the additives contained in the kit, the medium was further supplemented with 5 ng/mL EGF (Sigma), 70 ng/mL phosphoethanolamine (Sigma) and 10% FBS (Biological Industries). The plates for the THLE-2 needed to be pre-coated with a mixture of 0.01 mg/mL fibronectin, 0.05 mg/mL of PureCol™ EZ Gel Solution (Sigma) and 0.01 mg/mL of BSA dissolved in BEBM medium (Lonza). The coating medium was aspirated before seeding.
THLE-2 cells were exposed to the compounds in a 9-point, 2-fold dilution dose response series with a 100 μM as upper limit, for 72 h. Following the 72 h of exposure to the test compounds, cell viability was determined by measuring the concentration of cellular ATP (CellTiter Glo, Promega). The luminescence signal was measured on a Pherastar FS multi-mode plate reader (BMG Labtech). Each data point was tested in a triplicate.
First, toxicity was assessed in an ATP depletion assay, using THLE-2 cells following a 72 h exposure to a dose response of each of the tested compounds.
Data set [3] addresses T1, QR2 (Homo sapiens, UniProt P16083).
T1 sequence (P16083 1-231): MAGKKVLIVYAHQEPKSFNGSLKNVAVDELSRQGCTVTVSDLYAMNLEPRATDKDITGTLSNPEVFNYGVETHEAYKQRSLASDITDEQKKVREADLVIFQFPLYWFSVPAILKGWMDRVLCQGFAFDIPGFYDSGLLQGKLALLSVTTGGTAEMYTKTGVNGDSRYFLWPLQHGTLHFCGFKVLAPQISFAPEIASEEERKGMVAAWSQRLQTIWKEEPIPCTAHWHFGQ
Description: QR2 enzymatic activity assay (menadione/BNAH), fluorescence readout. Type of data set: biochemical. More on the design: purchased Sigma-Aldrich.

Data set [4] deals with T2, QR1 (NQO1) (Homo sapiens, UniProt P15559).
T2 construct: purchased Sigma-Aldrich
The data set is described as follows: Selectivity assay with QR1 in place of QR2, fluorescence readout. Type of data set: biochemical.

Values joined by “and” are separate entries in the source; they are usually repeats but may differ in a detail not shown here. Identical values can stand only once. Counter-ions that a name gives are not always drawn.

T2 sequence (P15559 whole entry): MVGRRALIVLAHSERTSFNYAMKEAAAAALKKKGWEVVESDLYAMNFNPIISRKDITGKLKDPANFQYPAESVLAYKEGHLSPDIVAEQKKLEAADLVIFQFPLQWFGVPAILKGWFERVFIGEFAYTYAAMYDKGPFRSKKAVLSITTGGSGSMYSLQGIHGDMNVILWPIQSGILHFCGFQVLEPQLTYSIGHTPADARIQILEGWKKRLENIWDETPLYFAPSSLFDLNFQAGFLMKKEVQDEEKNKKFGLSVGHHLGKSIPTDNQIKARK

In general, IC50 refers to the concentration that inhibits the measured activity by half. A higher IC50 goes with a need for much substance. `Cc1ccc(-c2cn3cccc(C)c3n2)cc1S(=O)(=O)N1CCNCC1` [YB-537, 8-methyl-2-(4-methyl-3-(piperazin-1-ylsulfonyl)phenyl)imidazo[1,2-a]pyridine hydrochloride]: the “toxicity in XTT assay” value in data set [1] is reported as “no toxicity”. Besides, the “median lethal dose (LD50) in THLE cells” value in data set [2] is greater than 100 µM. For the same compound, the IC50 in data set [3] amounted to 0.03 µM; in data set [4], 18.4 µM.
Regarding `Cc1cccn2cc(-c3cccc(S(=O)(=O)N4CCC(C)CC4)c3)nc12` [YB-800], the “toxicity in XTT assay” value in data set [1] is “no toxicity”. Also, the “median lethal dose (LD50) in THLE cells” value in data set [2] was 78.4 µM and 78.401 µM. The IC50 was 0.03 µM in data set [3] and greater than 9.99 µM in data set [4].
